The values that follow come from paper PMC5781198 (Influenza and Other Respiratory Viruses, 2013).

Assay [1] concerns influenza A(H1N1)pdm09 viruses, neuraminidase (NA). The format is biochemical, Influenza A(H1N1)pdm09 virus.
Assay [2] concerns influenza B Victoria lineage viruses, neuraminidase (NA). In kind it is biochemical, Influenza B virus (Victoria lineage).
The test system of assay [3] is influenza A(H3N2) viruses, neuraminidase (NA). In kind it is biochemical, Influenza A(H3N2) virus.
In assay [4] the test system is influenza B viruses, neuraminidase (NA). In kind it is biochemical, Influenza B virus.
The subject of assay [5] is A/Puerto Rico/34/2011 NA (D151D/G/N). In kind it is biochemical, Influenza A(H3N2) virus.

Regarding `[H]/N=C(\N)N[C@H]1C=C(C(=O)O)O[C@@H]([C@H](OC)[C@H](O)CO)[C@@H]1NC(C)=O` [Laninamivir, laninamivir], in assay [1], the “IC50 of outliers relative to the mean IC50 for the drug” value is given as “approximately twofold more”, the susceptibility in words entry is “showed sensitivity to the drug” and the “susceptibility of A(H1N1)pdm09 viruses compared with A(H3N2) viruses” value (shortened to “susceptibility … compared with A(H3N2) viruses”) is recorded as “approximately twofold more sensitive”. Also, the “difference in IC50 between Victoria and Yamagata lineage viruses” value in assay [2] is on record as “no apparent differences”. Also, in assay [3], the “IC50 of outliers relative to the mean IC50 for the drug” value is reported as “approximately twofold more” and the susceptibility in words entry is “showed sensitivity to the drug”. Also, the susceptibility in words result in assay [4] is listed as “showed sensitivity to the drug”.

Consider `CC(=O)N[C@H]1[C@H]([C@H](O)[C@H](O)CO)OC(C(=O)O)=C[C@@H]1N=C(N)N` [Zanamivir, zanamivir], for which, in assay [1], the susceptibility in words result is on record as “all showed sensitivity to the drug” and the “susceptibility … compared with A(H3N2) viruses” value is given as “approximately twofold more sensitive”. The “difference in IC50 between Victoria and Yamagata lineage viruses” value in assay [2] is given as “no apparent differences”. The susceptibility in words entry in assay [4] is “showed sensitivity to the drug”.

For `CCC(CC)[C@H](NC(C)=O)[C@@H]1[C@H](O)[C@@H](C(=O)O)C[C@H]1N=C(N)N` [Peramivir, peramivir], in assay [1], the “sensitivity compared with the other three NAIs” value was “fourfold more sensitive” and the “susceptibility … compared with A(H3N2) viruses” value is given as “approximately twofold more sensitive”. In addition, the “difference in IC50 between Victoria and Yamagata lineage viruses” value in assay [2] was “no apparent differences”. Further, the “fold difference in IC50” value in assay [5] is listed as 0·08 (1) fold. Besides, the “sensitivity compared with zanamivir and laninamivir” value in assay [3] is “threefold more sensitive”.
